Results on four compounds are retold here after patent publication US20090042913A1, “Indolylalkylthienopyrimidylamines as modulators of the EP2 receptor” (priority 2007, published 2009).

Molecules are shown by their SMILES.

Assay [1] deals with cumulus-oocyte complexes (PGE2-induced cumulus expansion). Description: Cumulus expansion assay in vitro. Type of assay: cell-based, mice. The following applies: in competition with PGE2. As for the experimental part:
Folliculogenesis is induced in immature female mice at an age of 14-18 days by a single dose (intraperitoneal) of 10 I.U. of PMSG (Pregnant Mare Serum Gonadotropin; Sigma G-4877, Lot 68H0909). 47-50 hours after the injection, the ovaries are removed and the cumulus-oocyte complexes are removed. The cumulus complex is not yet expanded at this stage.
The cumulus-oocyte complexes are then incubated with prostaglandin E2 (PGE2) (0.3 μM), vehicle control (ethanol) or test substances for 20-24 hours. Medium: alpha-MEM medium with 0.1 mM IBMX, pyruvates (0.23 mM) glutamines (2 mM), pen/strep 100 IU/ml pen. and 100 μg/ml strep. and HSA (8 mg/ml). Cumulus expansion is then established through the division into four stages (according to Vanderhyden et al. Dev Biol. 1990 August; 140(2):307-317).

The target of assay [2] is T1, human prostaglandin E2 (subtype EP2) receptor (Homo sapiens, UniProt P43116).
T1 construct: host or cells: cells in a cell culture plate
The experiment in a line: cAMP antagonism assay (HTRF cAMP detection, PGE2-stimulated cells). Type of assay: cell-based. The settings on record: cAMP antagonism test, in presence of PGE2. The procedure:
(§1) The binding of PGE2 to the EP2 subtype of the human PGE2 receptor induces activation of membrane-associated adenylate cyclases and leads to the formation of cAMP. In the presence of the phosphodiesterase inhibitor IBMX, cAMP which has accumulated due to this stimulation and been released by cell lysis is employed in a competitive detection method. In this assay, the cAMP in the lysate competes with cAMP-XL665 for binding of an Eu cryptate-labelled anti-cAMP antibody.
(§2) The two signals are measured in a suitable measuring instrument with a time lag, i.e. after the background fluorescence has declined.
The substance solutions (0.75 μl) introduced into an assay plate and 30% DMSO are dissolved in 16 μl of a KRSB+IBMX stimulation solution (1× Krebs-Ringer Bicarbonate Buffer; Sigma-Aldrich # K-4002; including 750 μM 3-isobutyl-1-methylxanthine Sigma-Aldrich # I-7018), and then 15 μl thereof are transferred into a media-free cell culture plate which has been washed with KRSB shortly beforehand.
After preincubation at room temperature (RT) for 30 minutes, 5 μl of a 4×PGE2 solution (11 nM) are added, and incubation is carried out in the presence of the agonist at RT for a further 60 min (volume: ˜20 μl) before the reaction is then stopped by adding 5 μl of lysis buffer and incubated at RT for a further 20 min (volume: ˜25 μl). The cell lysate is then transferred into a measuring plate and measured in accordance with the manufacturer's information (cyclic AMP kit Cisbio International # 62AMPPEC).

Assay [3] has as its target T1, human prostaglandin E2 (subtype EP2) receptor. The experiment in a line: cAMP agonism assay (cellular agonism test). The format is cell-based. The following applies: without PGE2. As for the experimental part:
as §1, §2
The substance solutions (0.75 μl) introduced into an assay plate and 30% DMSO are dissolved in 16 μl of a KRSB+IBMX stimulation solution (1× Krebs-Ringer Bicarbonate Buffer; Sigma-Aldrich # K-4002; including 750 μM 3-isobutyl-1-methylxanthine Sigma-Aldrich # 1-7018), and then 15 μl thereof are transferred into a media-free cell culture plate which has been washed with KRSB shortly beforehand.
After incubation at room temperature (RT; volume: ˜15 μl) for 60 minutes, the reaction is then stopped by adding 5 μl of lysis buffer and incubated at RT for a further 20 min (volume: ˜20 μl). The cell lysate is then transferred into a measuring plate and measured in accordance with the manufacturer's instructions (cyclic AMP kit Cisbio International # 62AMPPEC).

T1 sequence (P43116 whole entry): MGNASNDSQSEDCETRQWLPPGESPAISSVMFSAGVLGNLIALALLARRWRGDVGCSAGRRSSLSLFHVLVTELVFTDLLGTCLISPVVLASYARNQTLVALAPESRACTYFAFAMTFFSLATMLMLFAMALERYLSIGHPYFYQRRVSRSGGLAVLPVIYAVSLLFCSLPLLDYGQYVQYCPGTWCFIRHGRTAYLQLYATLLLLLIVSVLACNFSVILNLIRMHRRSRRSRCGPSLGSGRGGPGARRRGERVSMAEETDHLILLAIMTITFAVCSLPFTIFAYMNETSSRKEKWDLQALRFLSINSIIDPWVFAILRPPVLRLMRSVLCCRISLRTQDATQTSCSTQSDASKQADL

As for `CC(C)Oc1ccc2c(=O)c3cc(C(=O)O)ccc3oc2c1` [AH 6809, reference compound], the “suppression of cumulus expansion” value in assay [1] (100-200 μM) is recorded as “approx. 30%”.

As for `Cc1[nH]c2c(F)ccc(C)c2c1CCNc1ncnc2cc(-c3cccc(F)c3)sc12` [Example 22, [2-(7-fluoro-2,4-dimethyl-1H-indol-3-yl)ethyl]-[6-(3-fluorophenyl)thieno[3,2-d]pyrimidin-4-yl]amine], in assay [2], the 50% inhibitory concentration (IC50) is 0.111 µM. Further, in assay [3], the “effect in the cellular agonism test” value is “no inhibition”. Also, in assay [1] (10 μM), the “suppression of cumulus expansion” value amounted to 45%.

Take `Cc1[nH]c2c(F)ccc(C)c2c1CCNc1ncnc2cc(-c3ccc(C(F)(F)F)cc3)sc12` [Example 30, [2-(7-fluoro-2,4-dimethyl-1H-indol-3-yl)ethyl]-[6-(4-trifluoromethylphenyl)thieno[3,2-d]pyrimidin-4-yl]amine]: the IC50 in assay [2] was 0.101 µM.

For the compound `Cc1[nH]c2c(F)ccc(C)c2c1CCNc1ncnc2cc(-c3cc(F)ccc3F)sc12` [Example 55, [6-(2,5-difluorophenyl)thieno[3,2-d]pyrimidin-4-yl]-[2-(7-fluoro-2,4-dimethyl-1H-indol-3-yl)ethyl]amine], in assay [2], the IC50 was 0.097 µM.
